Values of other authors as cited in US20250122197A1, “PROCESS FOR […] ISOLATING ATROPISOMERS OF 7-CHLORO-6-FLUORO-1-(2-ISOPROPYL-4-METHYLPYRIDIN-3-YL)PYRIDO[2,3-D]PYRIMIDINE-2,4(1H,3H)-DIONE” (AMGEN INC., priority 2020, published 2025).

Columns and labels:
KRAS p.G12C tumors = conditions: mice bearing KRAS p.G12C tumors, Canon et al. Nature 2019
[1] = tested on: phosphorylation of extracellular signal-regulated kinase (ERK); conditions: preclinical studies, Canon et al. Nature 2019

For C=CC(=O)N1CCN(c2nc(=O)n(-c3c(C)ccnc3C(C)C)c3nc(-c4c(O)cccc4F)c(F)cc23)[C@@H](C)C1 [AMG 510], the Tumor regression (KRAS p.G12C tumors) is given as “durable complete tumor regression” and the “Inhibition of ERK phosphorylation” value [1] is given as “inhibited nearly all detectable phosphorylation”.
